Values quoted from earlier work as cited in article PMC12854702 (Synlett : accounts and rapid communications in synthetic …, 2025).

Key:
human SLACK = conditions: Tl+-flux, HEK-293 cells stably expressing human SLACK
[1] = test system: serotonin 5-HT2A receptor

Structure (SMILES): CN1CCN(C2=Nc3ccccc3Oc3ccc(Cl)cc32)CC1 [loxapine]
- SLACK activation Emax (human SLACK): 100%
- antagonism of dopamine D2 receptor (dopamine D2 receptor): potent antagonist
- antagonism of serotonin 5-HT2A receptor [1]: potent antagonist
- antagonism of histamine H1 receptor (histamine H1 receptor): potent antagonist
